Among the data in PubChem BioAssay (NCI) are TGI values, retold here.

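Following 48 hours of exposure in 96-well plates, responses at five concentrations were used to interpolate endpoints linearly. TGI denotes the concentration required for complete inhibition of growth.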

Common to all, as to assay: NCI tumour cell line growth inhibition, 48 h
Assay [1] deals with ACHN renal.
For assay [2], the system named is HCT-15 colon.
For assay [3], the system named is NCI-H226 lung.
For assay [4], the system named is NCI-H23 lung.
Assay [5] relates to NCI-H460 lung.
In assay [6] the test system is OVCAR-4 ovarian.
Assay [7] relates to SF-295 CNS.
For assay [8], the system named is SF-539 CNS.
The subject of assay [9] is UO-31 renal.
The subject of assay [10] is SR leukemia.

Take `CC[N+](CC)(CCNCC(N)=O)CC(N)=O`: the TGI in assay [1], in assay [2], in assay [3], in assay [4], in assay [5] and in [6] was over 10 µM each time. Also, the TGI in assay [7], in [8] and in [9] was over 10 µM each time.
`COc1cc(C[S+]2CCCC2)c(SC)cc1C[S+]1CCCC1`: the TGI in [1], in assay [2], in assay [3], in [4], in assay [5] and in assay [6] was over 100 µM in each case. The TGI in assay [7], in [8] and in assay [9] was over 100 µM each time.
Take `O=C(O)c1nc(-c2ccccc2)ncc1-c1nnnn1-c1ccccc1`: the TGI in assay [1], in assay [2], in [3], in assay [4], in [5] and in assay [7] was over 100 µM in each case. Moreover, the TGI in [8], in assay [10] and in assay [9] was over 100 µM each time.
On to `CC(C)C1OC23CCCCC2C(C#N)(C#N)C1(C#N)C(=N)O3` (stereo not drawn), for which the TGI was over 100 µM in assay [1]; 23.5 µM in assay [2]; over 100 µM in assay [3]; 85.8 µM in assay [4]; 32 µM in assay [5]; over 100 µM in [7]. The TGI is 39.4 µM in [8] and over 100 µM in assay [9].
As for `Clc1c(Cl)c(Cl)c2nn(C3CCCO3)nc2c1Cl` (stereo not drawn), the TGI in assay [3], in assay [4], in assay [7], in assay [8] and in assay [10] was over 100 µM throughout.
As to `CC1=C(C#N)C(C#N)(C#N)C(NN(C)C)C1` (stereo not drawn), the TGI in assay [1] was 34.6 µM; in assay [2], 21.3 µM; in [4], 40.8 µM; in assay [6] it was over 100 µM; in assay [7], 79.1 µM; in assay [8] it was over 100 µM. In addition, the values for the TGI in [10] and in assay [9] were over 100 µM and 29.3 µM, respectively.
As for `CN1C(=O)N/C(=C\c2ccc(S(=O)(=O)NN)cc2)C1=O`, the TGI in [1], in [2], in [3], in [4], in [6] and in assay [7] was over 100 µM throughout. For the same molecule, the TGI in assay [9] is over 100 µM.
As for `CCC(=O)NC(Nc1cccc(F)c1C)(C(F)(F)F)C(F)(F)F`, the TGI in assay [1], in assay [2], in [3], in assay [4], in assay [5] and in [7] was over 100 µM in each case. The TGI in [8], in [10] and in [9] was over 100 µM throughout.
As for `CCCCCN=Cc1c(O)c(O)c(C(C)C)c2cc(C)c(-c3c(C)cc4c(C(C)C)c(O)c(O)c(C=NCCCCC)c4c3O)c(O)c12`, the TGI in assay [1] was 31.3 µM; in assay [2] it was 78 µM; in assay [3], 88.4 µM; in assay [4], over 100 µM; in assay [5] it was over 100 µM; in assay [8], over 100 µM. The TGI was over 100 µM in assay [10] and 41.1 µM in [9].
On to `COc1ccc(/C=C(/C(=O)c2ccc(Cl)cc2)N2C=CC=CC2=C(C#N)C#N)cc1OC`, for which the TGI in assay [1] amounted to 11.9 µM; in assay [2], 6.19 µM; in [3], 38.4 µM; in assay [4] it was 27.5 µM; in [5] it was 25.5 µM; in [6], 20.5 µM. Further, the TGI in [7] is over 85.3 µM; in [8] it was 22.3 µM; in assay [9] it was 3.44 µM.
As to `N#C/C(C(=O)Nc1ccccc1)=C(/N)N1CCOCC1`, the TGI in assay [1], in [2], in assay [3], in [4], in assay [5] and in assay [7] was over 100 µM each time. For the same molecule, the TGI in assay [8], in assay [10] and in [9] was over 100 µM throughout.
Turning to `CCc1nc(N)nc(N)c1-c1ccc(Cl)c(Cl)c1`, the TGI in assay [1], in [2], in assay [4], in assay [5], in assay [6] and in assay [7] was over 100 µM throughout. The TGI in [8], in [10] and in [9] was over 100 µM in each case.
For the molecule `CN(c1ccc(Cl)cc1)S(=O)(=O)c1ccc([N+](=O)[O-])cc1`, the TGI in assay [1], in assay [2], in assay [3], in [4], in [5] and in assay [6] was over 100 µM each time. Moreover, the TGI in [7], in [8] and in assay [9] was over 100 µM throughout.
Turning to `CC1CC(N)=Nc2ccccc2N1` (stereo not drawn), the TGI in [1], in assay [2], in assay [3], in assay [4], in assay [6] and in assay [7] was over 100 µM in each case. In [9], this molecule gave a TGI of over 100 µM.
Regarding `O=C1OC[C@@H]2Cc3cc4c(cc3[C@H](c3ccc5c(c3)OCO5)[C@@H]12)OCO4`, the TGI in assay [1], in assay [2], in assay [4], in assay [5], in [6] and in assay [7] was over 25 µM throughout. Further, the TGI in assay [10] and in assay [9] was over 25 µM each time.
`C=C1CC(c2ccc(OCCCN3C(=O)c4ccccc4C3=O)c(OC)c2)OC1=O` (stereo not drawn): the TGI in [1] is 18.7 µM; in [2] it was 18.6 µM; in assay [3], 23.4 µM; in assay [4], 18.4 µM; in [5], 14.5 µM; in [7], 26.3 µM. The TGI turned out to be 1.69 µM in assay [8], 2.72 µM in assay [10] and 7.8 µM in [9].
With `O=[N+]([O-])c1ccc(/C=N/n2c(CO)nc3ccccc32)o1`, the TGI in assay [1] stood at 17.3 µM; in assay [2], 15.7 µM; in assay [3], 39.5 µM; in [4], 20 µM; in [5] it was 16.3 µM; in [6], 21.8 µM. For the same molecule, the TGI was determined as 25.2 µM in assay [7], 55 µM in assay [8] and 22.9 µM in assay [9].
With `CCC1(CC)SCc2nc3ccccc3n21`, the TGI was over 100 µM in assay [1]; over 100 µM in assay [2]; 88.8 µM in assay [3]; over 100 µM in [4]; over 100 µM in assay [5]; over 100 µM in assay [6]. Moreover, the TGI in assay [7], in assay [8] and in assay [9] was over 100 µM in each case.
Turning to `COc1cc(Nc2cnc3cc(F)c(F)cc3n2)cc(OC)c1OC`, the TGI in assay [1], in [2], in assay [3], in [4], in [5] and in assay [6] was over 100 µM throughout. Moreover, the TGI in assay [7], in [8] and in assay [9] was over 100 µM throughout.
As for `COC(=O)C(C)(NC(=O)C(CC(=O)OC(C)(C)C)NC(=O)OC(C)(C)C)c1ccccc1` (stereo not drawn), the TGI in assay [1], in assay [2], in assay [3], in assay [4], in assay [5] and in assay [7] was over 100 µM throughout. In addition, the TGI in [8], in assay [10] and in assay [9] was over 100 µM throughout.
As for `O=C(O)c1n[nH]nc1Cl`, the TGI in assay [1], in [2], in [3], in assay [4], in assay [5] and in assay [6] was over 100 µM in each case. The TGI in assay [7], in assay [8] and in [9] was over 100 µM in each case.
Regarding `Cc1cc(=O)[nH]c(NN2C(Cl)C(=O)C2c2cccc(O)c2)n1` (stereo not drawn), the TGI in [1] was over 100 µM; in [2], over 100 µM; in [4], over 100 µM; in assay [5] it was over 100 µM; in [6] it was over 100 µM; in assay [8], 31.6 µM. Also, the TGI in [10] was over 100 µM; in assay [9], 24.7 µM.
Regarding `O=NN(CCCl)C(=O)NC1CCSc2ccccc21` (stereo not drawn), the TGI in assay [2], in [3], in [4], in assay [5], in assay [6] and in [7] was over 100 µM each time. Moreover, the TGI is over 74.5 µM in [8] and over 100 µM in [9].
Turning to `NC(Cc1cccc([N+](=O)[O-])c1)C(=O)O` (stereo not drawn), the TGI in assay [1], in assay [2], in assay [3], in [4], in [5] and in [6] was over 100 µM each time. Further, the TGI in assay [7], in assay [8] and in assay [9] was over 100 µM throughout.
On to `CCOC(=O)C1=CC(C)(C(=O)OCC)Nc2c(nc(OC)n(C)c2=O)N1` (stereo not drawn), for which the TGI in assay [1], in assay [2], in [3], in assay [4], in [5] and in [6] was over 10 µM each time. The TGI in assay [7], in assay [8] and in assay [9] was over 10 µM in each case.
Consider `CS(=O)(=O)Nc1ccc(N2Cc3cnc4ccc5[nH]ccc2c5c34)cc1`, for which the TGI in assay [1] was over 100 µM; in assay [2], over 100 µM; in assay [3], 42.2 µM; in assay [4], 76.9 µM; in [5] it was 46.2 µM; in assay [6] it was 46.6 µM. Besides, the TGI in assay [7] and in assay [9] was over 100 µM each time.
For the molecule `NC(N)=NCCN=C(N)N`, the TGI in [1], in [2], in assay [4], in assay [5], in assay [6] and in assay [7] was over 100 µM in each case. Moreover, the TGI in [8] and in assay [9] was over 100 µM in each case.
As for `O=C(CC(=O)Nc1cccc(C(=O)O)c1)Nc1cccc(C(=O)O)c1`, the TGI in assay [1], in assay [2], in [3], in [4], in assay [5] and in assay [6] was over 100 µM each time. Further, the TGI in [7], in assay [8] and in assay [9] was over 100 µM each time.
With `Cc1ccc(S(=O)(=O)Oc2cc(-c3ccccc3)nc3ccccc23)cc1`, the TGI is over 40.3 µM in assay [2]; 26.5 µM in assay [3]; 12.2 µM in assay [4]; 13.7 µM in assay [5]; 16.2 µM in assay [6]; 13.1 µM in [7]. For the same molecule, the TGI was 4.87 µM in assay [8] and 35.6 µM in assay [9].
For `c1ccc(N=C2SC(=NC3CCCCC3)N(C3CCCCC3)C2=Nc2ccccc2)cc1`, the TGI in assay [2], in assay [3], in assay [4], in assay [5], in [7] and in assay [10] was over 100 µM each time. The molecule further had a TGI in assay [9] of over 100 µM.
Take `S=C(NCc1ccccc1)c1nc[nH]c1C(=S)NCc1ccccc1`: the TGI in [1] was found to be 7.51 µM; in assay [2], 33.6 µM; in assay [3], 8.1 µM; in [4] it was 25.7 µM; in assay [5], 18.7 µM; in assay [6], 20 µM. In addition, the results for the TGI in [7] and in assay [8] were 17.6 µM and 23.2 µM, respectively.
For `Cc1cc2nc3c(C#N)c(-c4ccccc4)cc(Nc4ccc(Cl)cc4)n3c2cc1C`, the TGI in [1], in [2], in [3], in assay [4], in [5] and in assay [6] was over 100 µM each time. Moreover, the TGI in assay [7], in assay [8] and in assay [9] was over 100 µM each time.
